Activity calls are given as the source filed them. No cut-off for these calls is given here.
Tests used:
[1] = target: Sodium-dependent dopamine transporter (Homo sapiens, UniProt Q01959); experiment: GPCRScan assay: inhibition of DAT; set-up: radioligand conc. used [nm] 3.6 – 16.0, parental cells stable HEK
[2] = target: T1, Bifunctional epoxide hydrolase 2 (Homo sapiens, UniProt P34913); experiment: Human soluble epoxide hydrolase inhibition
T1 sequence (P34913 whole entry): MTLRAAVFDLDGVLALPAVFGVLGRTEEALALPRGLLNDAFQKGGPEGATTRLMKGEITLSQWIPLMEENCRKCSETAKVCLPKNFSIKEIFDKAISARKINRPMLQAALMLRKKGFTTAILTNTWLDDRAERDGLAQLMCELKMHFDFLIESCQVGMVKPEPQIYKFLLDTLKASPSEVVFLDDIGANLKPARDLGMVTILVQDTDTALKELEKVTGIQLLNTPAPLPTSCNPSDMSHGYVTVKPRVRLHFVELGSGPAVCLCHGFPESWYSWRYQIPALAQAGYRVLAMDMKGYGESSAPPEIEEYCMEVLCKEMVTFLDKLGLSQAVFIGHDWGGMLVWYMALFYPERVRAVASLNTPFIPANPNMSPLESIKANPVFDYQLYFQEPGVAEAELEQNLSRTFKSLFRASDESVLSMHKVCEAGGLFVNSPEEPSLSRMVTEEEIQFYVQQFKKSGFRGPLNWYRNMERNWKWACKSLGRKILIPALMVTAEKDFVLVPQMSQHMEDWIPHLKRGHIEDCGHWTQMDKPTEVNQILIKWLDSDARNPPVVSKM

[3] = target: Polyunsaturated fatty acid lipoxygenase ALOX15 (Oryctolagus cuniculus) (UniProt P12530); experiment: 15LO Eurofins-Panlabs selectivity data (BI); settings: Compound concentration 10.0 uM
[4] = target: 5-hydroxytryptamine receptor 4 (Cavia porcellus) (UniProt O70528); experiment: 5HT4/GPIG Eurofins-Panlabs selectivity data (BI); settings: Compound concentration 10.0 uM
[5] = target: Acetylcholinesterase (Homo sapiens) (UniProt P22303); experiment: ACHOLINEST Eurofins-Panlabs selectivity data (BI); settings: Compound concentration 10.0 uM
[6] = target: Endothelin-1 receptor (Homo sapiens) (UniProt P25101); experiment: ETA/HU Eurofins-Panlabs selectivity data (BI); settings: Compound concentration 10.0 uM
[7] = target: Muscarinic acetylcholine receptor (Rattus norvegicus) (UniProt P08482+P08483+P08485+P08911+P10980); experiment: MUSCARIN/NS Eurofins-Panlabs selectivity data (BI); type: protein assay; settings: Compound concentration 10.0 uM
[8] = target: Activin receptor type-2A (Homo sapiens) (UniProt P27037); settings: Compound concentration 1000.0 nM
[9] = target: RAC-gamma serine/threonine-protein kinase (Homo sapiens) (UniProt Q9Y243); settings: Compound concentration 1000.0 nM
[10] = target: Serine/threonine-protein kinase B-raf (Homo sapiens) (UniProt P15056); settings: Compound concentration 1000.0 nM
[11] = target: Cyclin-dependent kinase 4 (Homo sapiens) (UniProt P11802); settings: Compound concentration 1000.0 nM
[12] = target: Discoidin domain-containing receptor 2 (Homo sapiens) (UniProt Q16832); settings: Compound concentration 1000.0 nM
[13] = system: Epidermal growth factor receptor (Homo sapiens), P00533 [G719S]; settings: Compound concentration 1000.0 nM
[14] = target: Eukaryotic translation initiation factor 2-alpha kinase 1 (Homo sapiens) (UniProt Q9BQI3); settings: Compound concentration 1000.0 nM
[15] = target: Ephrin type-B receptor 2 (Homo sapiens) (UniProt P29323); settings: Compound concentration 1000.0 nM
Ephrin type-B receptor 2 (Homo sapiens), sequence (P29323 whole entry): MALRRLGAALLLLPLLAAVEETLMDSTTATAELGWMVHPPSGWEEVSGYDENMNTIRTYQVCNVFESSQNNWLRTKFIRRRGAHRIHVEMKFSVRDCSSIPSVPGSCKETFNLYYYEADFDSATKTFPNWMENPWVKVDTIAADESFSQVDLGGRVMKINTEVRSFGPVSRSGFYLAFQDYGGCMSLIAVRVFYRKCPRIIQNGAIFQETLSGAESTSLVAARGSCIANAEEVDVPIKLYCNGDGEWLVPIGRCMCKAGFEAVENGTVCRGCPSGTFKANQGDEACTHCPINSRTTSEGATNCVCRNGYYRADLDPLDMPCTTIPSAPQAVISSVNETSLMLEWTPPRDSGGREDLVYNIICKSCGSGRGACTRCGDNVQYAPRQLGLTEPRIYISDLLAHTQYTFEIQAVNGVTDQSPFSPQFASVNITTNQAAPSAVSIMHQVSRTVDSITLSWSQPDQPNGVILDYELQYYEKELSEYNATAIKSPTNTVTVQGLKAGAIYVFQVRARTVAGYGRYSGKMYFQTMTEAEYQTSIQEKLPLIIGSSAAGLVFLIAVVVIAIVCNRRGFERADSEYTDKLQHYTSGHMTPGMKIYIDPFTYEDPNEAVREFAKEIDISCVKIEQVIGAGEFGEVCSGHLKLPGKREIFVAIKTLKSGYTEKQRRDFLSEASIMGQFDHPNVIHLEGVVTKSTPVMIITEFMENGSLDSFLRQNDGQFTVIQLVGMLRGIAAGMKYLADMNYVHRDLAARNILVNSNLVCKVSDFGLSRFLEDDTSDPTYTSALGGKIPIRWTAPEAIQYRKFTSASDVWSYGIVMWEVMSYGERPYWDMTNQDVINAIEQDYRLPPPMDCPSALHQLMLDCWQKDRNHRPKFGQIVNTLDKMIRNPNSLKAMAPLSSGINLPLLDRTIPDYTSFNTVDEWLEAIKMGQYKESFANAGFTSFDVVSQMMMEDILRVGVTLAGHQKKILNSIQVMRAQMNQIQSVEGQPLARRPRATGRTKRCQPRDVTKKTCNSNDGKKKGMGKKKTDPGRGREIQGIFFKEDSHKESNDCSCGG

[16] = target: Mitogen-activated protein kinase 15 (Homo sapiens) (UniProt Q8TD08); settings: Compound concentration 1000.0 nM
[17] = target: Tyrosine-protein kinase Fes/Fps (Homo sapiens) (UniProt P07332); settings: Compound concentration 1000.0 nM
[18] = target: Fibroblast growth factor receptor 4 (Homo sapiens) (UniProt P22455); settings: Compound concentration 1000.0 nM
[19] = target: Tyrosine-protein kinase Lyn (Homo sapiens) (UniProt P07948); settings: Compound concentration 1000.0 nM
[20] = target: Serine/threonine-protein kinase 26 (Homo sapiens) (UniProt Q9P289); settings: Compound concentration 1000.0 nM
Serine/threonine-protein kinase 26 (Homo sapiens), sequence (Q9P289 2-416 limits assumed): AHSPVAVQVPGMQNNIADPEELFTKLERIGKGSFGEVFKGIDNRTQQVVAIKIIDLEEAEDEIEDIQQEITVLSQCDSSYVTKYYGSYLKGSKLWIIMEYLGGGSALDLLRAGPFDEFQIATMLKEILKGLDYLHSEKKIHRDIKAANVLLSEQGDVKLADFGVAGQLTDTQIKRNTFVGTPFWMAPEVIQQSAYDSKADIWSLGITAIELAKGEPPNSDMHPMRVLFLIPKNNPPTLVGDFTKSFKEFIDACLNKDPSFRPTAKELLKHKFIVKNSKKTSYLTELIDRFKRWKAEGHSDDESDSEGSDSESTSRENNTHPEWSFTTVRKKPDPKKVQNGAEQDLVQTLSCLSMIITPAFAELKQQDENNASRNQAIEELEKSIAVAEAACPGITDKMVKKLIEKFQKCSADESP

[21] = target: Serine/threonine-protein kinase Nek11 (Homo sapiens) (UniProt Q8NG66); settings: Compound concentration 1000.0 nM
Serine/threonine-protein kinase Nek11 (Homo sapiens), sequence (Q8NG66 whole entry): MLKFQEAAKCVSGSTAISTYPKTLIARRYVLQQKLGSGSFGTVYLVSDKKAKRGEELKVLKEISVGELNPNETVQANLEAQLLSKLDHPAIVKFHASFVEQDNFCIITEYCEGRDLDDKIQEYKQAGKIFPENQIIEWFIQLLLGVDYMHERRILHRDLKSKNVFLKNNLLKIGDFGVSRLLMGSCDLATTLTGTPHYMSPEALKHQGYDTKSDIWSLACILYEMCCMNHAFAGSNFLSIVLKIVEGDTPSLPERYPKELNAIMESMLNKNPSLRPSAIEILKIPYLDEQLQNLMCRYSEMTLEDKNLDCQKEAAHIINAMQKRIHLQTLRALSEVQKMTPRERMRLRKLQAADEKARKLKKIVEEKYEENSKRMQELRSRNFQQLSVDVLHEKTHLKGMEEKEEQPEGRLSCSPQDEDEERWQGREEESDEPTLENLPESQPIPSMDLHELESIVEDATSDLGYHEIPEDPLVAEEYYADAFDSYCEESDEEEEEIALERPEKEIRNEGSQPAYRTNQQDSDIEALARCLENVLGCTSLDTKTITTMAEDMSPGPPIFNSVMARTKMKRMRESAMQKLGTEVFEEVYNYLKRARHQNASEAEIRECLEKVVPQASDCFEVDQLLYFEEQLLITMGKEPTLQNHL

[22] = target: Serine/threonine-protein kinase Nek4 (Homo sapiens) (UniProt P51957); settings: Compound concentration 1000.0 nM
[23] = target: Cyclin-dependent kinase 16 (Homo sapiens) (UniProt Q00536); settings: Compound concentration 1000.0 nM
Cyclin-dependent kinase 16 (Homo sapiens), sequence (Q00536 whole entry): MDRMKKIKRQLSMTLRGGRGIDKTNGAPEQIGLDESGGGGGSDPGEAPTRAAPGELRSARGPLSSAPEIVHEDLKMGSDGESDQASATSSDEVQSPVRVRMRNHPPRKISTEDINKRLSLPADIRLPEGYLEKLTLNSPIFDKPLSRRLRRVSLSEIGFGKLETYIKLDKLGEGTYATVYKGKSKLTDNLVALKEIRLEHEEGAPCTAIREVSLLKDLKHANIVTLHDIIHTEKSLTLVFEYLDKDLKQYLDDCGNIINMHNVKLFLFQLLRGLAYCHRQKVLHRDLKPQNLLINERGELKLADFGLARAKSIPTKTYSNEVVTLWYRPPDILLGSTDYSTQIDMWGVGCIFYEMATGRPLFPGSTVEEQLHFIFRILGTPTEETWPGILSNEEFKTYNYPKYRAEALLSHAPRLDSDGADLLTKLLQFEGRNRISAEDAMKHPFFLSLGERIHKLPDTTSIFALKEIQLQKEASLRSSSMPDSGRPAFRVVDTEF

[24] = target: Platelet-derived growth factor receptor alpha (Homo sapiens) (UniProt P16234); settings: Compound concentration 1000.0 nM
[25] = target: Cyclin-dependent kinase 14 (Homo sapiens) (UniProt O94921); settings: Compound concentration 1000.0 nM
[26] = target: Phosphatidylinositol 4,5-bisphosphate 3-kinase catalytic subunit delta isoform (Homo sapiens) (UniProt O00329); settings: Compound concentration 1000.0 nM
[27] = target: Serine/threonine-protein kinase PLK2 (Homo sapiens) (UniProt Q9NYY3); settings: Compound concentration 1000.0 nM
[28] = target: Protein kinase C eta type (Homo sapiens) (UniProt P24723); settings: Compound concentration 1000.0 nM
[29] = target: Protein-tyrosine kinase 2-beta (Homo sapiens) (UniProt Q14289); settings: Compound concentration 1000.0 nM
[30] = target: Ribosomal protein S6 kinase alpha-6 (Homo sapiens) (UniProt Q9UK32); settings: Compound concentration 1000.0 nM
[31] = target: Ribosomal protein S6 kinase beta-1 (Homo sapiens) (UniProt P23443); settings: Compound concentration 1000.0 nM
Ribosomal protein S6 kinase beta-1 (Homo sapiens), sequence (P23443 whole entry, looked up): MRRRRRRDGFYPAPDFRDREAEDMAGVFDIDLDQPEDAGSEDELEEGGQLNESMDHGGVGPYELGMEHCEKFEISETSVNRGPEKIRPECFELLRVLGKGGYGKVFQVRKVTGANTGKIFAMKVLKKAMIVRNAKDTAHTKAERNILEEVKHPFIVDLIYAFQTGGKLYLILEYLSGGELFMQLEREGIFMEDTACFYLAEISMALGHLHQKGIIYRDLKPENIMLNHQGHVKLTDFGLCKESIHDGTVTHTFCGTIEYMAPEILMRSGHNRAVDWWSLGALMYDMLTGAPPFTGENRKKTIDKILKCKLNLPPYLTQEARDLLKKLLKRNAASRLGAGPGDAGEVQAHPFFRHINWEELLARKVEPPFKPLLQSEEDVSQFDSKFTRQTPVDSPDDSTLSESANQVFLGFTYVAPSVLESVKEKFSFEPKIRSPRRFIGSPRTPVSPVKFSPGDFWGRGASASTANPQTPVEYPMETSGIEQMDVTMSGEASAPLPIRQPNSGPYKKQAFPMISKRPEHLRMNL

[32] = target: SRSF protein kinase 1 (Homo sapiens) (UniProt Q96SB4); settings: Compound concentration 1000.0 nM
SRSF protein kinase 1 (Homo sapiens), sequence (Q96SB4 whole entry): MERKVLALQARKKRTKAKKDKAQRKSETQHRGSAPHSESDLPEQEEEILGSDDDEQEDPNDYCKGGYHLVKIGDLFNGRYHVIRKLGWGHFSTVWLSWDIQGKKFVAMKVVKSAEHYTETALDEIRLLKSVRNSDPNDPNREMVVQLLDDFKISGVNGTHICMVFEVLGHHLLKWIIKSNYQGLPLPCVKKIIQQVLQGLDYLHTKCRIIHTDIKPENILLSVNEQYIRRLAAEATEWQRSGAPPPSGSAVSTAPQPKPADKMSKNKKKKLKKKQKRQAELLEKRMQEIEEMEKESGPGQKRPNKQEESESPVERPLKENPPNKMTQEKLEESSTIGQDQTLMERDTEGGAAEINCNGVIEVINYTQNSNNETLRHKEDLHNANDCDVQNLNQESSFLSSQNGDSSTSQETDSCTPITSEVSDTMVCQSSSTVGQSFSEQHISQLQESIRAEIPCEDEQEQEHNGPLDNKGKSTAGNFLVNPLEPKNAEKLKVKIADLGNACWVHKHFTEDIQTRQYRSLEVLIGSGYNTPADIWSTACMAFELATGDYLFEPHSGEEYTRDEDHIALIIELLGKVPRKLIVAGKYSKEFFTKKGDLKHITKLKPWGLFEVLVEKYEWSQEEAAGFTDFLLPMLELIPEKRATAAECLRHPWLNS

[33] = target: Serine/threonine-protein kinase 33 (Homo sapiens) (UniProt Q9BYT3); settings: Compound concentration 1000.0 nM
[34] = target: Serine/threonine-protein kinase 35 (Homo sapiens) (UniProt Q8TDR2); settings: Compound concentration 1000.0 nM
[35] = target: Wee1-like protein kinase 2 (Homo sapiens) (UniProt P0C1S8); settings: Compound concentration 1000.0 nM
Wee1-like protein kinase 2 (Homo sapiens), sequence (P0C1S8 whole entry, looked up): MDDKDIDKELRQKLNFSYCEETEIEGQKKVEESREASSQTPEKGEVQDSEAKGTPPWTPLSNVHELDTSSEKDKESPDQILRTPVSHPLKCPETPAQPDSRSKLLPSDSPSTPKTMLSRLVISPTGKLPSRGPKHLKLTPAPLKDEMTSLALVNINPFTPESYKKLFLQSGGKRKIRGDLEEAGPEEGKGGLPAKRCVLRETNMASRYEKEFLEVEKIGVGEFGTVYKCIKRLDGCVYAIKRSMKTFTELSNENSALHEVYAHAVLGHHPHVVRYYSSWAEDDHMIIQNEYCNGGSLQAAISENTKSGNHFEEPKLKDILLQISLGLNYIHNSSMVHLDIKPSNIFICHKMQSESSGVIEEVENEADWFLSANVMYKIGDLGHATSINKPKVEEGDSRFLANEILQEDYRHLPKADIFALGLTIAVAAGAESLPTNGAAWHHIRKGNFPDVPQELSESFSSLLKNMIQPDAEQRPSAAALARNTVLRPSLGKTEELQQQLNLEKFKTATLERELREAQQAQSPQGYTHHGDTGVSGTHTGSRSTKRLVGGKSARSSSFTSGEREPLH

[36] = target: Serine/threonine-protein kinase 32B (Homo sapiens) (UniProt Q9NY57); settings: Compound concentration 1000.0 nM
[37] = target: Muscarinic acetylcholine receptor M4 (Homo sapiens) (UniProt P08173); settings: Compound concentration 10.0 uM

Sodium-dependent dopamine transporter, sequence (Q01959 whole entry): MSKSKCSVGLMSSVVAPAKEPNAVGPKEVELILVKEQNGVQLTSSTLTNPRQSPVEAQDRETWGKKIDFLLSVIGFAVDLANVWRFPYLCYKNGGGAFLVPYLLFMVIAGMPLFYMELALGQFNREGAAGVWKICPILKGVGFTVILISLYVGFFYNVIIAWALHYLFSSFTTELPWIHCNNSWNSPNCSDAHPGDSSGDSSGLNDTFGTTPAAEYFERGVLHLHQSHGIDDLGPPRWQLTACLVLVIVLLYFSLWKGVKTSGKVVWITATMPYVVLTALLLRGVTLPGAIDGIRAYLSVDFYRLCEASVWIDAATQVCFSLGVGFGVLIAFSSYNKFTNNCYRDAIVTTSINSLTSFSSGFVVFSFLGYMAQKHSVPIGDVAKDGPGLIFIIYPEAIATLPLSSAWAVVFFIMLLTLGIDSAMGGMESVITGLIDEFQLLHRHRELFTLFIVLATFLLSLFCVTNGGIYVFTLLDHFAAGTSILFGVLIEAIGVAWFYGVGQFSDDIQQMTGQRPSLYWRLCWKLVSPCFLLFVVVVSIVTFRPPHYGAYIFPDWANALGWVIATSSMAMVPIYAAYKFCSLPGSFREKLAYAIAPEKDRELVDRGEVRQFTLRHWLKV

What does the source list for `CCOCCn1cc(C(=O)Nc2ccc(-n3nc(-c4cccnc4)cc3C(F)(F)F)cn2)ccc1=O` [BI 1935]?
Ki ([1]; read-out: Ki): 4.48 µM; Ki ([1]; read-out: pKi (converted)): 5.01 µM; IC50 [2]: 0.007 µM (active); residual activity [3]: 92%; residual activity [4]: 103%; residual activity [5]: 41%; residual activity [6]: 97%; residual activity [7]: 112%; residual activity [8]: 100%; residual activity [9]: 100%; residual activity [10]: 95%; residual activity [11]: 81%; residual activity [12]: 100%; residual activity [13]: 100%; residual activity [14]: 84%; residual activity [15]: 61%; residual activity [16]: 100%; residual activity [17]: 82%; residual activity [18]: 100%; residual activity [19]: 81%; residual activity [20]: 81%; residual activity [21]: 96%; residual activity [22]: 80%; residual activity [23]: 98%; residual activity [24]: 68%; residual activity [25]: 100%; residual activity [26]: 100%; residual activity [27]: 88%; residual activity [28]: 100%; residual activity [29]: 100%; residual activity [30]: 100%; residual activity [31]: 97%; residual activity [32]: 98%; residual activity [33]: 94%; residual activity [34]: 94%; residual activity [35]: 100%; residual activity [36]: 100%; inhibition [37]: 4.25%

Source: ChEMBL document CHEMBL4507283, “Data for DCP probe BI-1935” (2021)
